Measured values: patent US20090055945A1, “Method for Producing Nuclear-Transplanted Egg” (priority 2005, published 2009)

Experiments:
[1] = tested on: oocytes into which nuclei from fibroblasts were transferred; assay: Expanded blastocyst formation, fibroblasts as donor cells; assay type: cell-based, mouse; settings: fibroblast donor nuclei; 50 nM TSA for 20 hours; FIG. 8
Method: (§1) A procedure similar to that described in Example 1 was carried out using fibroblasts or embryonic stem cells (ES cells) as donor cells in place of cumulus cells. Fibroblasts were obtained by culturing a fragment of mouse tail (Non-patent Document 11). E14 cells were used as ES cells (Non-patent Document 12).
(§2) Oocytes into which nuclei from the donor cells were transferred were treated with TSA for 20 hours, and cultured in KSOM medium without TSA until 96 hours after the initiation of activation. Then, development into expanded blastocysts was observed and the blastocyst formation rate was determined. 30 or more embryos were examined in each of the experimental groups of the respective cells.

[2] = tested on: oocytes into which nuclei from ES cells (E14) were transferred; assay: Expanded blastocyst formation, ES cells as donor cells; assay type: cell-based, mouse; settings: ES cell donor nuclei; 50 nM TSA for 20 hours; FIG. 8
Method: as §1, §2

[3] = tested on: oocytes injected with mature sperm (ICSI); assay: Paternal genome DNA methylation, mature sperm injection (ICSI); assay type: cell-based, mouse; settings: 500 nM TSA, 20 hours
Method: The oocytes injected with the nuclear domains of round spermatids obtained by ROSI were cultured for 20 hours in the presence of 20 ng/ml of demecolcine in a medium containing 10 μM 5-azacytidine (5-aza) or 500 nM TSA as an anti-methylation agent. Similarly, injection of mature sperms was carried out (ICSI (intracytoplasmic sperm injection)). Specifically, heads of sperms were separated from the tails by applying pulses to the head-tail junctions by means of a piezo-driven pipette (PrimeTech), and injected into oocytes. The oocytes were not subjected to activation in this case. […]
For quantitative analysis of pronuclear DNA methylation levels, fluorescence images were subjected to densitometric analysis using the program Image-J from the National Institute of Health (http://rsb.info.nih.gov/ij/). For each pronucleus, the relative intensity of methylation of the paternal genome was calculated as a percentage of the fluorescence intensity of the maternal genome. In Table 3, data with (b) and without (a) anti-methylation agent were statistically analyzed by Scheffe tests for multiple mean comparisons using the statistical program SPSS version 12.0 (SPSS Inc.). […]

[4] = tested on: cloned embryos derived from cumulus cells; assay: Methylation of DNA and histone H3 Lys9 in cloned embryos; assay type: cell-based, mouse; settings: 500 nM TSA for 15 hours; FIG. 9
Method: Cloned embryos derived from cumulus cells were produced using oocytes from B6D2F1 mice produced according to the method as described in Example 1, and cultured in the presence or absence of 500 nM TSA for 15 hours (including the activation period). Then, the nuclear transfer embryos were fixed, and methylation of DNA (DNA metC) and methylation of histone H3 Lys9 (H3K9 trimet) were examined using antibodies against the respective antigens. Furthermore, DNA was stained with DAPI. 15 cloned embryos were used for each group. The results are shown in FIG. 9 along with the merged images (Merge).

[5] = tested on: fibroblasts as donor cells; settings: donor fibroblasts cultured with agent prior to nuclear transfer; Non-patent Document 1; cited from earlier work

CC(/C=C/C(=O)NO)=C\[C@@H](C)C(=O)c1ccc(N(C)C)cc1 [TSA, trichostatin A]
blastocyst development rate compared with the case without TSA [1]: higher
blastocyst development rate compared with the case without TSA [2]: higher
Ratio of methylation level of paternal genome to maternal genome (%) [3]: 8.2^b %
methylation of DNA and histone H3 Lys9 in other chromosomal portions [4]: reduction in methylation of both was observed
methylation of DNA and histone H3 Lys9 in the pericentromeric region [4]: prominent reduction was not observed
blastocyst development rate [5]: increased
